Each structure is given as a SMILES string.

One test concerns PANC-1 cells. Description: CaspaseGlo 3/7 apoptosis assay, PANC-1. Type of test: cell-based, human. The following applies: 72 h. On the procedure: 6 Effect of small-molecule modulators on gemcitabine-induced apoptosis and tumor growth of PDAC cells. […] After 2 h, gemcitabine (GEM) was added at increasing concentrations (10 and 25 nM) or not (−) for another incubation of 72 h. Subsequently, the luminescence-based caspase3/7 assay was performed. The activity of caspase 3/7 in treated cells was normalized to the activity measured in untreated cells (dark gray bar), which was set to 1 (mean SD, n = 6 for PANC-1 and n = 4 for PaTu8988T; *: p ≤ 0.05, **: p ≤ 0.01, ***: p ≤ 0.001, using the student t-test). […] After 24 h, gemcitabine (GEM, 1 μM) was added (+) or not (−) for another incubation of 48 h. Subsequently, the apoptotic cell fraction was quantified in % by flow cytometry using FITC-labeled Annexin V (AV) and propidium iodide (PI) staining (in B: mean ± SD, n = 6 for PANC-1 and n = 5 for PaTu8988T; **: p ≤ 0.01, ***: p ≤ 0.001, ****: p ≤ 0.0001, using the student t-test). […] Viable cells are AV/PI double-negative (AV–/PI–, lower left quadrant, Q4), early apoptotic cells are AV single-positive (AV+/PI– upper left quadrant, Q1), late apoptotic cells are AV/PI double-positive (AV+/PI+, upper right quadrant, Q2), and necrotic cells are PI single-positive (AV–/PI+, lower right quadrant, Q3). The sum of early and late apoptotic cell numbers ([…] in %) is indicated in red. D-G: The workflow of the PDAC xenograft experiments in mice is depicted in D. PANC-1 cells (2 × 10^6 cells/mouse) were subcutaneously (s.c.) injected in the right flank of female athymic nude mice. Small tumor nodules appeared 6 days post-engraftment. […] Tumor volumes were measured every second day using a digital caliper. […] At the end of the 2 weeks, mice were sacrificed and tumors were dissected (F).
For quantification of apoptosis using the CaspaseGlo 3/7 assay (Promega), PANC-1 and PaTu8988T cells were seeded in triplicates in white 96-well plate (5 × 10^3 cells/well) and cultured in the absence or presence of compounds. After 2 h, as soon as the cells had settled, gemcitabine was added or not, and cells were incubated for another 72 h. Subsequently, the caspase3/7 activity was measured using the luminescence-based CaspaseGLO-3/7 assay (Promega). To this end, the CaspaseGlo reagent was subsequently added to the cells at a 1:1 ratio and incubated at room temperature and under agitation for 30 min protected from light. The luminescence measurements were carried out using a microplate reader (Mithras LB 940, Berthold).

A further test deals with T1, FLAG-tagged PRMT6 (Homo sapiens, UniProt Q96LA8).
T1 construct: The complete ORFs of human PRMT3 and PRMT6 were inserted; made in house; host or cells: Sf9 insect cells (baculovirus)
The experiment in a line: Fluorescence-based in vitro PRMT assay (F-PRMT assay), PRMT6. The format is biochemical. The following applies: for Experimental result (PRMT6): vs solvent control = 100%. The essentials: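 Baculovirus/Sf9-expressed FLAG-PRMTs (human PRMT3, PRMT6; mouse PRMT4), anti-FLAG purified and used bead-bound, methylated Bz-Arg-AMC with SAM for 2 h at 37 °C, 1,000 rpm. Technical triplicates; no-SAM negative controls.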

T1 sequence (Q96LA8 whole entry): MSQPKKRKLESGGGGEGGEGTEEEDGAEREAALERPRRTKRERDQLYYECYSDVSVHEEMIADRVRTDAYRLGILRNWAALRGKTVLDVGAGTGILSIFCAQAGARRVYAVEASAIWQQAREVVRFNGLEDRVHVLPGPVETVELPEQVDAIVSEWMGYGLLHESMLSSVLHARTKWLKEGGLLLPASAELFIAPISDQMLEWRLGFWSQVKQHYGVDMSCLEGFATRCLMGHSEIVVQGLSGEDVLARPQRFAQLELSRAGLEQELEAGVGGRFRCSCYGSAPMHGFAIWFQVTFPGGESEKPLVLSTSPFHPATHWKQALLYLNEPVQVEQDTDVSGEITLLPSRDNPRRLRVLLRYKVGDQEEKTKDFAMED

Regarding `CN(C)Cc1cccc(CN/C=C2\C(=O)NC(=O)c3ccccc32)c1.Cl` [TR-07, (Z)-1-[3-({[(1,3-Dioxo-2,3-dihydroisoquinolin-4(1H)-lidene)methyl]amino}methyl)phenyl]-N,N-dimethylmethanaminium chloride], the “apoptosis, caspase 3/7 activity, single agent” value with PANC-1 cells (TR-07 10 μM or gemcitabine 10 and 25 nM) is “did not significantly induce apoptosis”. Also, in the test with PANC-1 cells (compound 10 μM, after 2 h gemcitabine 10 and 25 nM), the “gemcitabine-induced apoptosis, caspase 3/7 activity, co-treatment” value is reported as “further significantly enhanced”. Besides, at FLAG-tagged PRMT6 (100 μM compound), the “effect on PRMT6 activity (in words)” value is “neither positively nor negatively influencing”. Besides, the “Experimental result (PRMT6)” value on FLAG-tagged PRMT6 (Table 1, 100 μM compound, 2 μM PRMT, n = 3, racemates used) was “PRMT6 n.e. (Compounds, which did not significantly affect the catalytic activity (less than ±6% change or not significant p-value), are marked with [drawing 8] (no effect))”; on FLAG-tagged PRMT6 (Table S3, 100 µM compound, n≥3) it was “n.e. (did not significantly affect the catalytic activity (less than ±6% change or not significant p-value), are marked with n.e. (no effect))”.
